Source: article PMC7794376 (Nature Communications, 2021)
Values after ≈ are worked out from the molar mass of the structure shown. Values joined by “and” are separate entries in the source; they are usually repeats but may differ in a detail not shown here. Equal values may be shown once. Read-outs that look alike come from different tables or passages of the source.

Experiments:
[1] = biological target: T1, MtbCoaBC (Mycobacterium tuberculosis, UniProt P9WNZ1); experiment: biochemical; assay type: biochemical; details: for activity at 0.015625 µM / activity at 0.03125 µM / activity at 0.0625 µM / activity at 0.25 µM / activity at 0.5 µM: relative to average DMSO CT; for Activity R1 / Activity R3: slope of absorbance at 360 nm vs time (s)
T1 sequence (P9WNZ1 whole entry): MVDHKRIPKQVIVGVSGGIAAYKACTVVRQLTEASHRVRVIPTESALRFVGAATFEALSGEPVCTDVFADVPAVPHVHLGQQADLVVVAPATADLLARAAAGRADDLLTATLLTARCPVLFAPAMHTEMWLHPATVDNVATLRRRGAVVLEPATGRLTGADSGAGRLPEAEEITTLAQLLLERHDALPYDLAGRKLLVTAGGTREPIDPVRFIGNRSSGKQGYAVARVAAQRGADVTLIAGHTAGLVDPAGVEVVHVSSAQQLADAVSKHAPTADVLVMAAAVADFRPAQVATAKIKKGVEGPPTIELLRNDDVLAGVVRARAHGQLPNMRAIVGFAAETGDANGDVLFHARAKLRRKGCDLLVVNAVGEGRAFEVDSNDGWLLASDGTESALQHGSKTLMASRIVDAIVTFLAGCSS

[2] = biological target: T1, MtbCoaBC; experiment: High-throughput end-point pyrophosphate quantification assay (Biomol Green); assay type: biochemical; details: MtbCoaB activity; end-point, 2 µM CTP, 40 µM L-cysteine, 30 µM PPA; read-out: IC50 biomol green assay
[3] = biological target: T1, MtbCoaBC; experiment: CMP quantification assay (UPLC), second half of CoaB reaction, variable L-cysteine; assay type: biochemical; details: for uM CMP/uM protein.s-1 (rate of CMP formation): MtbCoaBC 32nM, replicates R1-R3
[4] = system: M. tuberculosis H37Rv; experiment: MIC determination in different media; assay type: cell-based; details: Mycobacterium tuberculosis, read-out: Minimum inhibitory concentration (MIC)
[5] = inhibitor concentration 1 (log 0), unit not shown, three replicates
[6] = inhibitor concentration 2 (log 0.30103), unit not shown, three replicates

SMILES: O=c1cc(-c2ccc(O)c(O)c2)oc2cc(O)c(O)cc12 [compound 2b]
- activity at 0.015625 µM ([1]; 0.015625 uM 2b, replicate R1, read-out: Activity % R1): 91.9%
- Activity R1 ([1]; 0.015625 uM 2b, replicate R1): 0.0001714
- inhibition at 0.015625 µM ([1]; 0.015625 uM 2b, replicate R2, read-out: Inhibition % R2): 5.01%
- activity at 0.015625 µM ([1]; 0.015625 uM 2b, replicate R2, read-out: Activity % R2): 95%
- inhibition at 0.015625 µM ([1]; 0.015625 uM 2b, replicate R3, read-out: Inhibition % R3): 10.3%
- activity at 0.015625 µM ([1]; 0.015625 uM 2b, replicate R3, read-out: Activity % R3): 89.7%
- Activity R3 ([1]; 0.015625 uM 2b, replicate R3): 0.0001672
- inhibition at 0.03125 µM ([1]; 0.03125 uM 2b, replicate R1, read-out: Inhibition % R1): 20.2%
- activity at 0.03125 µM ([1]; 0.03125 uM 2b, replicate R1, read-out: Activity % R1): 79.8%
- Activity R1 ([1]; 0.03125 uM 2b, replicate R1): 0.0001487
- inhibition at 0.03125 µM ([1]; 0.03125 uM 2b, replicate R2, read-out: Inhibition % R2): 19.2%
- activity at 0.03125 µM ([1]; 0.03125 uM 2b, replicate R2, read-out: Activity % R2): 80.8%
- inhibition at 0.03125 µM ([1]; 0.03125 uM 2b, replicate R3, read-out: Inhibition % R3): 19.4%
- activity at 0.03125 µM ([1]; 0.03125 uM 2b, replicate R3, read-out: Activity % R3): 80.6%
- Activity R3 ([1]; 0.03125 uM 2b, replicate R3): 0.0001503
- inhibition at 0.0625 µM ([1]; 0.0625 uM 2b, replicate R1, read-out: Inhibition % R1): 37.9%
- activity at 0.0625 µM ([1]; 0.0625 uM 2b, replicate R1, read-out: Activity % R1): 62.1%
- Activity R1 ([1]; 0.0625 uM 2b, replicate R1): 0.0001157
- inhibition at 0.0625 µM ([1]; 0.0625 uM 2b, replicate R2, read-out: Inhibition % R2): 38.9%
- activity at 0.0625 µM ([1]; 0.0625 uM 2b, replicate R2, read-out: Activity % R2): 61.2%
- inhibition at 0.0625 µM ([1]; 0.0625 uM 2b, replicate R3, read-out: Inhibition % R3): 38%
- activity at 0.0625 µM ([1]; 0.0625 uM 2b, replicate R3, read-out: Activity % R3): 62%
- Activity R3 ([1]; 0.0625 uM 2b, replicate R3): 0.0001157
- inhibition at 0.25 µM ([1]; 0.25 uM 2b, replicate R1, read-out: Inhibition % R1): 95%
- activity at 0.25 µM ([1]; 0.25 uM 2b, replicate R1, read-out: Activity % R1): 4.96%
- Activity R1 ([1]; 0.25 uM 2b, replicate R1): 0.000009249
- activity at 0.25 µM ([1]; 0.25 uM 2b, replicate R2, read-out: Activity % R2): 4.35%
- inhibition at 0.25 µM ([1]; 0.25 uM 2b, replicate R3, read-out: Inhibition % R3): 95.6%
- activity at 0.25 µM ([1]; 0.25 uM 2b, replicate R3, read-out: Activity % R3): 4.39%
- Activity R3 ([1]; 0.25 uM 2b, replicate R3): 0.000008176
- inhibition at 0.5 µM ([1]; 0.5 uM 2b, replicate R1, read-out: Inhibition % R1): 97.8%
- activity at 0.5 µM ([1]; 0.5 uM 2b, replicate R1, read-out: Activity % R1): 2.19%
- Activity R1 ([1]; 0.5 uM 2b, replicate R1): 0.000004090
- inhibition at 0.5 µM ([1]; 0.5 uM 2b, replicate R2, read-out: Inhibition % R2): 99%
- activity at 0.5 µM ([1]; 0.5 uM 2b, replicate R2, read-out: Activity % R2): 1%
- inhibition at 0.5 µM ([1]; 0.5 uM 2b, replicate R3, read-out: Inhibition % R3): 97%
- activity at 0.5 µM ([1]; 0.5 uM 2b, replicate R3, read-out: Activity % R3): 3%
- Activity R3 ([1]; 0.5 uM 2b, replicate R3): 0.000005588
- inhibition, IC50 MtbCoaBC 2b [1, 5]: 99.01
- reaction rate (slope of absorbance at 360 nm vs time), IC50 MtbCoaBC 2b [1, 5]: 0.000001846 and 0.000001860 and -0.000003443
- remaining activity relative to control, IC50 MtbCoaBC 2b [1, 5]: 0.9903 and 0.9976 and -1.847
- reaction rate (slope of absorbance at 360 nm vs time), IC50 MtbCoaBC 2b [1, 6]: -0.000001738 and -0.000001919 and -0.000000593
- remaining activity relative to control, IC50 MtbCoaBC 2b [1, 6]: -0.932 and -1.029 and -0.318
- IC50 ([1]; read-out: IC50 EnzChek MtbCoaBC): 80 ± 10 nM
- inhibition at 0.25 µM ([1]; read-out: Inhibition % R2): 95.7%
- IC50 [2]: 100 nM
- uM CMP/uM protein.s-1 (rate of CMP formation) ([3]; 0.03125uM 2b, 31.25 uM cysteine): 0.1688 uM CMP/uM protein.s-1 and 0.1774 uM CMP/uM protein.s-1 and 0.1722 uM CMP/uM protein.s-1
- uM CMP/uM protein.s-1 (rate of CMP formation) ([3]; 0.03125uM 2b, 62.5 uM cysteine): 0.2177 uM CMP/uM protein.s-1 and 0.2245 uM CMP/uM protein.s-1 and 0.2185 uM CMP/uM protein.s-1
- uM CMP/uM protein.s-1 (rate of CMP formation) ([3]; 0.03125uM 2b, 250 uM cysteine): 0.2696 uM CMP/uM protein.s-1 and 0.2689 uM CMP/uM protein.s-1 and 0.2761 uM CMP/uM protein.s-1
- uM CMP/uM protein.s-1 (rate of CMP formation) ([3]; 0.03125uM 2b, 500 uM cysteine): 0.3036 uM CMP/uM protein.s-1 and 0.2988 uM CMP/uM protein.s-1 and 0.3158 uM CMP/uM protein.s-1
- uM CMP/uM protein.s-1 (rate of CMP formation) ([3]; 0.0625uM 2b, 31.25 uM cysteine): 0.139 uM CMP/uM protein.s-1 and 0.1432 uM CMP/uM protein.s-1 and 0.1461 uM CMP/uM protein.s-1
- uM CMP/uM protein.s-1 (rate of CMP formation) ([3]; 0.0625uM 2b, 62.5 uM cysteine): 0.1762 uM CMP/uM protein.s-1 and 0.1605 uM CMP/uM protein.s-1 and 0.1802 uM CMP/uM protein.s-1
- uM CMP/uM protein.s-1 (rate of CMP formation) ([3]; 0.0625uM 2b, 250 uM cysteine): 0.2128 uM CMP/uM protein.s-1 and 0.2019 uM CMP/uM protein.s-1 and 0.2135 uM CMP/uM protein.s-1
- uM CMP/uM protein.s-1 (rate of CMP formation) ([3]; 0.0625uM 2b, 500 uM cysteine): 0.2223 uM CMP/uM protein.s-1 and 0.2126 uM CMP/uM protein.s-1 and 0.2324 uM CMP/uM protein.s-1
- mode of inhibition ([3]; relative to L-cysteine, in words): uncompetitive inhibition
- MIC ([4]; 7H9/ADC/Glycerol): > 250 µM
- MIC ([4]; 7H9/Cholesterol/Tyloxapol): > 250 µM
- MIC ([4]; GAST/Fe): 50 µM (≈ 14.3 µg/mL)
